Assay results from publication PMC4939156, “Study of a mechanism responsible for potential antidepressant activity of EMD 386088, a 5-HT6 partial agonist in rats” (Naunyn-Schmiedeberg's Archives of Pharmacology, 2016).
Counter-ions that a name gives are not always drawn.

Target: T1, dopamine transporter (DAT) (Homo sapiens, UniProt Q01959)
T1 construct: gene SLC6A3; human recombinant, CHO cells
Experiment: Cerep DAT affinity assay, human recombinant CHO cells (called radioligand in the Discussion, functional in Methods)
Type: binding

T1 sequence (Q01959 whole entry): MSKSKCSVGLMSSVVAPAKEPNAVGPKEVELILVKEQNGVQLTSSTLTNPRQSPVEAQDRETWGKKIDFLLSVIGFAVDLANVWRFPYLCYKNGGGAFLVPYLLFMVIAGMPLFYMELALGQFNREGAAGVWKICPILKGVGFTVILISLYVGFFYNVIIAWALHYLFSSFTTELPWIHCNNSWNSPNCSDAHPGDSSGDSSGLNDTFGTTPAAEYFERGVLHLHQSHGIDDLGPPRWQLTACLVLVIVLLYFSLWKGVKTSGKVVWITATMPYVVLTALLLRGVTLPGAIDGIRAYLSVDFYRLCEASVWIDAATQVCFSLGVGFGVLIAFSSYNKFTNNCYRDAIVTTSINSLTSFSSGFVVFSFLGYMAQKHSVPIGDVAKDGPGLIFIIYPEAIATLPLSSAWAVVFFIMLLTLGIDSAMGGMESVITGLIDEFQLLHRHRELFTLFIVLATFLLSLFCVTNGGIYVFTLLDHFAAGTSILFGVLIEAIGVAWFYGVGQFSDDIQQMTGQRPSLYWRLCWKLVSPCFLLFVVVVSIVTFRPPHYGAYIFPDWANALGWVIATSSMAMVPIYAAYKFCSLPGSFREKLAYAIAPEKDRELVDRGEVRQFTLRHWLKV

Cc1[nH]c2ccc(Cl)cc2c1C1=CCNCC1 [EMD 386088, 5-chloro-2-methyl-3-(1,2,3,6-tetrahydro-4-pyridinyl)-1H-indole hydrochloride]
Ki: 41 nM
